{"source": "paper PMC7104723", "about": "(Cell Research, 2020)", "key": {"SARS-CoV-2 PsV": {"tested_on": "SARS-CoV-2 PsV", "settings": "PsV, 72 h"}, "SARS-CoV-2 S protein": {"molecular_target": "SARS-CoV-2 S protein (Severe acute respiratory syndrome coronavirus 2, UniProt P0DTC2)", "experiment": "cell-based", "format": "cell-based"}, "SARS-CoV PsV": {"tested_on": "SARS-CoV PsV", "settings": "72 h"}, "MERS-CoV PsV": {"tested_on": "MERS-CoV PsV", "settings": "72 h"}, "HCoV-OC43 PsV": {"tested_on": "HCoV-OC43 PsV", "settings": "72 h"}, "HCoV-NL63 S protein": {"molecular_target": "HCoV-NL63 S protein (Human coronavirus NL63, UniProt Q6Q1S2)", "experiment": "cell-based", "format": "cell-based"}, "HCoV-229E S protein": {"molecular_target": "HCoV-229E S protein (Human coronavirus 229E, UniProt P15423)", "sequence (P15423 16-1173 limits assumed)": "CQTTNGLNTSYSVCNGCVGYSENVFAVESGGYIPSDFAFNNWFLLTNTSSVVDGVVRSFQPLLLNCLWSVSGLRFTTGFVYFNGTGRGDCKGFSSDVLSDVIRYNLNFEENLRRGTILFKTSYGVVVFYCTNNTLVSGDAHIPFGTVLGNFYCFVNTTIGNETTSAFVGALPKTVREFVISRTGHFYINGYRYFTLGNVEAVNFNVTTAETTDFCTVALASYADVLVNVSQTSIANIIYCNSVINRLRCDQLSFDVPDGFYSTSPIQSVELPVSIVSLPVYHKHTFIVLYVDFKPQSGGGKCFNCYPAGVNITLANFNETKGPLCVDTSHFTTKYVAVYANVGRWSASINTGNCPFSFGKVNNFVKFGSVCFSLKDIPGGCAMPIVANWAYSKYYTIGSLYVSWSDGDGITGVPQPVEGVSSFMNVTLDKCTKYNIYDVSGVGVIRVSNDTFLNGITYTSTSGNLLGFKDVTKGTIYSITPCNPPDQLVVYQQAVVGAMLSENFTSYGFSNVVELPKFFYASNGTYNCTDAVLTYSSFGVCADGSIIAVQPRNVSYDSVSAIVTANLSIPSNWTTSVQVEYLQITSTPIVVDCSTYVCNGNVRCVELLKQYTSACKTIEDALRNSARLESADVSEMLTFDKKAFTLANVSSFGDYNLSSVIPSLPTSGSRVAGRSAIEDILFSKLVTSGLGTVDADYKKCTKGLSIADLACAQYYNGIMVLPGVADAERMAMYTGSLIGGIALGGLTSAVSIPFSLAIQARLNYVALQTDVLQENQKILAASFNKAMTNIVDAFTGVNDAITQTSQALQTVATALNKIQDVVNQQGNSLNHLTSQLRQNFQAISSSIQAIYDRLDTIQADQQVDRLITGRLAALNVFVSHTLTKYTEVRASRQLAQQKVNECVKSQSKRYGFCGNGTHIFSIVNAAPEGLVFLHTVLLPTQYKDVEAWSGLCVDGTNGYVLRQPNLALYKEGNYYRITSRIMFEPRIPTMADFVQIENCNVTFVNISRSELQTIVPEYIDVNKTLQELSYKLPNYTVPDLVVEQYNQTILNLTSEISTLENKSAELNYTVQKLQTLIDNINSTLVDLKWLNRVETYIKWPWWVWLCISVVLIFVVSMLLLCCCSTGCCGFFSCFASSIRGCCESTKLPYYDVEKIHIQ", "experiment": "cell-based", "format": "cell-based"}, "Rs3367 PsV": {"tested_on": "Rs3367 PsV", "settings": "72 h"}, "live HCoV-229E": {"tested_on": "live HCoV-229E", "settings": "1 h"}, "HCoV-NL63 PsV": {"tested_on": "HCoV-NL63 PsV", "settings": "72 h"}, "HCoV-OC43 S protein": {"molecular_target": "HCoV-OC43 S protein (Human coronavirus OC43, UniProt P36334)", "sequence (P36334 14-1353 limits assumed)": "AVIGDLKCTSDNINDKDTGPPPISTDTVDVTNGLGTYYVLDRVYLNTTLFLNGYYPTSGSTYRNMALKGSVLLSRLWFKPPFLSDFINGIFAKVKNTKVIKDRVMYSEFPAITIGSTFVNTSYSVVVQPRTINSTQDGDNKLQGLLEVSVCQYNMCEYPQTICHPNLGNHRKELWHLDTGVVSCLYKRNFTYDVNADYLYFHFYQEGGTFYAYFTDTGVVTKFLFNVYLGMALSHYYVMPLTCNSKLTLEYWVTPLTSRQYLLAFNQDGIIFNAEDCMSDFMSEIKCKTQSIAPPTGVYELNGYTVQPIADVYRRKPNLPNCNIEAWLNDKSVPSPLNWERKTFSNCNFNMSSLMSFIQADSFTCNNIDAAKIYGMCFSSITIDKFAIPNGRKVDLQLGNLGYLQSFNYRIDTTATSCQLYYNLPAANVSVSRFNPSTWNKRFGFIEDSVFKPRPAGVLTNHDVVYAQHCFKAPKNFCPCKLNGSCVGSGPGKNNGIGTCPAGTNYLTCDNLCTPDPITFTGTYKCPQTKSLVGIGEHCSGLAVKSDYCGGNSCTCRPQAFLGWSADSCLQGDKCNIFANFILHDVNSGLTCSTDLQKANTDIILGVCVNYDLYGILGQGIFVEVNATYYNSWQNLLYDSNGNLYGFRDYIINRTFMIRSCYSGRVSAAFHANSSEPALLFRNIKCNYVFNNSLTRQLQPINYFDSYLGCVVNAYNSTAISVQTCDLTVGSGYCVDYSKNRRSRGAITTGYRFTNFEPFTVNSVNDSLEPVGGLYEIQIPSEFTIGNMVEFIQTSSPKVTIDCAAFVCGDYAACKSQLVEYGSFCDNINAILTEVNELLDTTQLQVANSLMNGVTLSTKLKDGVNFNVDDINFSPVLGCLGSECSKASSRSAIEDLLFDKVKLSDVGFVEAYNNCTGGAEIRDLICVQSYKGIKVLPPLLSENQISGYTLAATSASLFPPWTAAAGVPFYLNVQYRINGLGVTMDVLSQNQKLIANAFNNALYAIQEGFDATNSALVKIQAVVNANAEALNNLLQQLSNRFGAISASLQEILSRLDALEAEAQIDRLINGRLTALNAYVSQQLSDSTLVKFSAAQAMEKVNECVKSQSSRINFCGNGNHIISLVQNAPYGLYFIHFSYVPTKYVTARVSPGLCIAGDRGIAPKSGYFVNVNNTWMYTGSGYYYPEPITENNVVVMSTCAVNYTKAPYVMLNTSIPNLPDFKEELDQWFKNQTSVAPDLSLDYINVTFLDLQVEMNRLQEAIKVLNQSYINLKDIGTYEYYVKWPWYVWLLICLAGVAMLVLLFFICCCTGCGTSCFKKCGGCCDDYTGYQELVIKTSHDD", "experiment": "cell-based", "format": "cell-based"}, "SARS-CoV S protein": {"molecular_target": "SARS-CoV S protein (Severe acute respiratory syndrome coronavirus, UniProt P59594)", "experiment": "cell-based", "format": "cell-based"}, "live HCoV-NL63": {"tested_on": "live HCoV-NL63", "settings": "1 h"}, "live HCoV-OC43": {"tested_on": "live HCoV-OC43", "settings": "1 h"}, "MERS-CoV S protein": {"molecular_target": "MERS-CoV S protein (Middle East respiratory syndrome-related coronavirus, UniProt K9N5Q8)", "sequence (K9N5Q8 18-1353 limits assumed)": "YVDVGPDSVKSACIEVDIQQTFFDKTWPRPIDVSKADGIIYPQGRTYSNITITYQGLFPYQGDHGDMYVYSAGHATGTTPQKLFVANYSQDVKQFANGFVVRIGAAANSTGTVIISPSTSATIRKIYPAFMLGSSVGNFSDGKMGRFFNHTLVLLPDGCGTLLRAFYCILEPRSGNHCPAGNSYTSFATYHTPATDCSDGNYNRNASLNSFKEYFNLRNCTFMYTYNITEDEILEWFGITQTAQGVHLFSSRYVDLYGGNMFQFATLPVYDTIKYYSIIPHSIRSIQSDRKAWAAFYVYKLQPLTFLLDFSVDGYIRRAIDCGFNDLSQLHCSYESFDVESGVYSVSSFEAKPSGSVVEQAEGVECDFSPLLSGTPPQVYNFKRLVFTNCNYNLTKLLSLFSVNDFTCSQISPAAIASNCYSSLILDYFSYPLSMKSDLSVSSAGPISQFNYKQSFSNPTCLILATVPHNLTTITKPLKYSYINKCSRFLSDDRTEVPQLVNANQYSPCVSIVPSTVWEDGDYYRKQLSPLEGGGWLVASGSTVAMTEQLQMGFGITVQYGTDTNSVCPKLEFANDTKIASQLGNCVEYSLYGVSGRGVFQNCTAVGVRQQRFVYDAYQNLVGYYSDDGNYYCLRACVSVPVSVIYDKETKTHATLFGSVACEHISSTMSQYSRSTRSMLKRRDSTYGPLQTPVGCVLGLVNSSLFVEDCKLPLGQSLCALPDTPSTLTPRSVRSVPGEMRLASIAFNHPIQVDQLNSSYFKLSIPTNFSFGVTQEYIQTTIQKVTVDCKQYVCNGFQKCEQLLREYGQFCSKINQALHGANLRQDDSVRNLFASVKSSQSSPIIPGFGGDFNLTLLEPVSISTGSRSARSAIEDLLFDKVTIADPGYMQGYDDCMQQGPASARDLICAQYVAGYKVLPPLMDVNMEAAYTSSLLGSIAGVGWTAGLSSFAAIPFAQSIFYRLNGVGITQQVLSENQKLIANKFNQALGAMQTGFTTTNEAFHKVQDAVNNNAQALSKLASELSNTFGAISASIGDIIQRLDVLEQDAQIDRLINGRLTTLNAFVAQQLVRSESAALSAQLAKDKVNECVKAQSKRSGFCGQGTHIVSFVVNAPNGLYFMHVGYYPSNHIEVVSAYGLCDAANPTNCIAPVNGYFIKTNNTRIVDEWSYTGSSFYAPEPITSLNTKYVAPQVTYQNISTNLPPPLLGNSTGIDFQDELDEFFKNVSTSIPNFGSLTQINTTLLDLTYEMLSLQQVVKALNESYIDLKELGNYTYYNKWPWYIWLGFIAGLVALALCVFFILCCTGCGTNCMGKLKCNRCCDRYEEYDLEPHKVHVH", "experiment": "cell-based", "format": "cell-based"}, "HCoV-229E PsV": {"tested_on": "HCoV-229E PsV", "settings": "72 h"}, "live MERS-CoV": {"tested_on": "live MERS-CoV", "settings": "72 h"}, "WIV1 PsV": {"tested_on": "WIV1 PsV", "settings": "72 h"}, "live SARS-CoV-2": {"tested_on": "live SARS-CoV-2", "settings": "live, 72 h"}, "SHC014 S protein": {"tested_on": "SHC014 S protein", "format": "cell-based, SL-CoV RsSHC014"}, "WIV1 S protein": {"tested_on": "WIV1 S protein", "format": "cell-based, SL-CoV WIV1"}, "Rs3367 S protein": {"tested_on": "Rs3367 S protein", "format": "cell-based, SL-CoV Rs3367"}}, "note": "pIC50: −log10 of the molar value. Values joined by “and” are separate entries in the source; they are usually repeats but may differ in a detail not shown here. Identical values can stand only once. Non-standard residues stand in square brackets, D forms with d. Residues, ends and D or L forms follow the SMILES beside them. *: point of attachment. X1 = CC(C)CCC[C@@H](C)[C@H]1CC[C@H]2[C@@H]3CC=C4C[C@@H](OC(=O)C*)CC[C@]4(C)[C@H]3CC[C@]12C; PEG4 = NCCOCCOCCOCCOCCC(=O)O", "data": [{"molecule": "CC[C@H](C)[C@H](NC(=O)[C@H](C)NC(=O)[C@H](CCC(=O)O)NC(=O)[C@H](CCC(=O)O)NC(=O)[C@H](CC(C)C)NC(=O)[C@H](CCCCN)NC(=O)[C@H](CCCCN)NC(=O)[C@H](CCSC)NC(=O)[C@H](CCC(=O)O)NC(=O)[C@H](Cc1ccc(O)cc1)NC(=O)[C@H](CCC(=O)O)NC(=O)[C@H](CC(C)C)NC(=O)[C@H](CC(=O)O)NC(=O)[C@H](CC(C)C)NC(=O)[C@H](Cc1ccccc1)NC(=O)[C@@H](NC(=O)[C@@H](NC(=O)[C@H](CC(N)=O)NC(=O)[C@@H](NC(=O)[C@H](CCC(N)=O)NC(=O)[C@H](CC(=O)O)NC(=O)[C@H](CC(C)C)NC(=O)[C@@H](N)CO)[C@@H](C)CC)C(C)C)[C@@H](C)O)C(=O)N[C@@H](CCCCN)C(=O)N[C@@H](CCCCN)C(=O)N[C@@H](CC(C)C)C(=O)N[C@@H](CCC(=O)O)C(=O)N[C@@H](CCC(=O)O)C(=O)N[C@@H](CO)C(=O)N[C@@H](Cc1ccc(O)cc1)C(=O)N[C@H](C(=O)N[C@@H](CC(=O)O)C(=O)N[C@@H](CC(C)C)C(=O)N[C@@H](CCCCN)C(=O)N[C@@H](CCC(=O)O)C(=O)N[C@@H](CC(C)C)C(=O)NCCOCCOCCOCCOCCC(=O)N[C@@H](CSCC(=O)O[C@H]1CC[C@@]2(C)C(=CC[C@H]3[C@@H]4CC[C@H]([C@H](C)CCCC(C)C)[C@@]4(C)CC[C@@H]32)C1)C(N)=O)[C@@H](C)CC", "note": "[EK1C] (H-SLDQINVTFLDLEYEMKKLEEAIKKLEESYIDLKEL[PEG4]C(X1)-NH2)", "values": [{"measurement": "pIC50", "setting": "SARS-CoV-2 PsV", "result": 6.86}, {"measurement": "Inhibition of SARS-CoV-2 mediated cell–cell fusion at 2.5 μM", "setting": "SARS-CoV-2 S protein", "result": "completely inhibit"}]}, {"molecule": "CC[C@H](C)[C@H](NC(=O)[C@H](C)NC(=O)[C@H](CCC(=O)O)NC(=O)[C@H](CCC(=O)O)NC(=O)[C@H](CC(C)C)NC(=O)[C@H](CCCCN)NC(=O)[C@H](CCCCN)NC(=O)[C@H](CCSC)NC(=O)[C@H](CCC(=O)O)NC(=O)[C@H](Cc1ccc(O)cc1)NC(=O)[C@H](CCC(=O)O)NC(=O)[C@H](CC(C)C)NC(=O)[C@H](CC(=O)O)NC(=O)[C@H](CC(C)C)NC(=O)[C@H](Cc1ccccc1)NC(=O)[C@@H](NC(=O)[C@@H](NC(=O)[C@H](CC(N)=O)NC(=O)[C@@H](NC(=O)[C@H](CCC(N)=O)NC(=O)[C@H](CC(=O)O)NC(=O)[C@H](CC(C)C)NC(=O)[C@@H](N)CO)[C@@H](C)CC)C(C)C)[C@@H](C)O)C(=O)N[C@@H](CCCCN)C(=O)N[C@@H](CCCCN)C(=O)N[C@@H](CC(C)C)C(=O)N[C@@H](CCC(=O)O)C(=O)N[C@@H](CCC(=O)O)C(=O)N[C@@H](CO)C(=O)N[C@@H](Cc1ccc(O)cc1)C(=O)N[C@H](C(=O)N[C@@H](CC(=O)O)C(=O)N[C@@H](CC(C)C)C(=O)N[C@@H](CCCCN)C(=O)N[C@@H](CCC(=O)O)C(=O)N[C@@H](CC(C)C)C(=O)O)[C@@H](C)CC", "note": "[EK1]", "values": [{"measurement": "pIC50", "setting": "SARS-CoV PsV", "result": 5.49}, {"measurement": "pIC50", "setting": "MERS-CoV PsV", "result": 6.20}, {"measurement": "pIC50", "setting": "HCoV-OC43 PsV", "result": 5.85}, {"measurement": "pIC50", "setting": "HCoV-NL63 S protein", "result": 6.12}, {"measurement": "pIC50", "setting": "HCoV-229E S protein", "result": 6.68}, {"measurement": "pIC50", "setting": "Rs3367 PsV", "result": 5.22}, {"measurement": "pIC50", "setting": "live HCoV-229E", "result": 5.36}, {"measurement": "pIC50", "setting": "HCoV-NL63 PsV", "result": 5.12}, {"measurement": "pIC50", "setting": "HCoV-OC43 S protein", "result": 6.10}, {"measurement": "pIC50", "setting": "SARS-CoV S protein", "result": 6.39}, {"measurement": "pIC50", "setting": "live HCoV-NL63", "result": 5.43}, {"measurement": "pIC50", "setting": "live HCoV-OC43", "result": 5.81}, {"measurement": "pIC50", "setting": "SARS-CoV-2 PsV", "result": 5.62}, {"measurement": "pIC50", "setting": "MERS-CoV S protein", "result": 6.62}, {"measurement": "pIC50", "setting": "HCoV-229E PsV", "result": 5.40}, {"measurement": "pIC50", "setting": "SARS-CoV-2 S protein; IC50, SARS-CoV-2 S-mediated cell–cell fusion", "result": "6.54 and 6.50"}, {"measurement": "pIC50", "setting": "live MERS-CoV", "result": 6.10}, {"measurement": "pIC50", "setting": "WIV1 PsV", "result": 5.27}, {"measurement": "pIC50", "setting": "live SARS-CoV-2", "result": 5.61}]}, {"molecule": "LKVLLYEEFKLLESLIMEILEYQKDSDIKENAEDTK [EK1-scrambled, reference compound]", "values": [{"measurement": "Inhibitory activity on SHC014 S-mediated cell–cell fusion", "setting": "SHC014 S protein", "result": "no inhibitory activity"}, {"measurement": "Inhibitory activity on HCoV-NL63 S-mediated cell–cell fusion", "setting": "HCoV-NL63 S protein", "result": "no inhibitory activity"}, {"measurement": "Inhibitory activity on HCoV-229E S-mediated cell–cell fusion", "setting": "HCoV-229E S protein", "result": "no inhibitory activity"}, {"measurement": "Inhibitory activity on HCoV-OC43 S-mediated cell–cell fusion", "setting": "HCoV-OC43 S protein", "result": "no inhibitory activity"}, {"measurement": "Inhibitory activity on SARS-CoV S-mediated cell–cell fusion", "setting": "SARS-CoV S protein", "result": "no inhibitory activity"}, {"measurement": "Inhibitory activity on WIV1 S-mediated cell–cell fusion", "setting": "WIV1 S protein", "result": "no inhibitory activity"}, {"measurement": "Inhibitory activity on Rs3367 S-mediated cell–cell fusion", "setting": "Rs3367 S protein", "result": "no inhibitory activity"}, {"measurement": "Inhibitory activity on MERS-CoV S-mediated cell–cell fusion", "setting": "MERS-CoV S protein", "result": "no inhibitory activity"}, {"measurement": "Inhibitory activity on SARS-CoV-2 S-mediated cell–cell fusion", "setting": "SARS-CoV-2 S protein", "result": "no inhibitory activity"}]}]}
